Results taken from patent US20210392882A1, “METHODS AND COMPOSITIONS FOR IMPROVED INSECT REPELLENCY” (Board of Trustees of Michigan State University, priority 2020, published 2021).

How the values were obtained:
[1] = test system: sst-1 sensilla (sst-1A and sst-1B neurons); test: Single sensillum recording (SSR) of antennal sst-1 sensilla; assay type: cell-based, Aedes aegypti; conditions: for response of sst-1A neuron: wild-type ROCK, pyrethrum at 10^−2; for response of sst-1A neurons: ROCK, 10^−1 dilution, FIG. 4A
Experimental: (§1) Single sensilla recording was conducted as described in Liu et al. J Insect Physiol 59, 1169-1177 (2013). Female mosquitoes 4 days after eclosion were anaesthetized (2-3 min on ice) and mounted on a microscope slide (76×26 mm). An antenna was fixed using a double-sided tape to a cover slip resting on a small ball of dental wax to facilitate manipulation. The cover slip was placed at an appropriate angle to the mosquito head. Once mounted, the specimen was placed under a microscope (Nikon SMA645, Japan) and the antenna viewed at a high magnification (1000×). Two tungsten microelectrodes were sharpened in 10% KNO2 at 2-10 V. The reference electrode, which was connected to ground, was inserted into the compound eye of the mosquito and the other was connected to the preamplifier (10×, Syntech, Kirchzarten, Germany) and inserted into the shaft of an olfactory sensillum to complete the electrical circuit to extracellularly record olfactory receptor neuron potentials (Den Otter et al., Journal of Insect Physiology 26, 465-472 (1980)). Controlled manipulation of the electrodes was performed using a micromanipulator (Burleigh PCS-6000, CA). The preamplifier was connected to an analog-to-digital signal converter (IDAC-4, Syntech, Germany), which in turn was connected to a computer for signal recording and visualization. The activity of co-located olfactory receptor neurons in each sensillum was assessed based on the differences in spike amplitude. The large spike amplitude was designated as cell A and the olfactory receptor neuron with the small spike amplitude was designated cell B (Ghaninia et al. Eur J Neurosci 26, 1611-1623 (2007)). Signals were recorded for 10 seconds starting 1 second before stimulation, and the action potentials were counted off-line over a 500-ms period before and after stimulation. The spontaneous firing rates observed in the preceding 500 milliseconds (ms) were subtracted from the total spike rates observed during the 500-ms stimulation, and counts were recorded in units of spikes/second.
(§2) Eighteen compounds besides pyrethrum from different chemical classes were selected for functional classification of olfactory sensilla with various morphological shapes (Extended Data FIG. 2). Each compound was diluted in dimethyl sulfoxide (DMSO) to a stock solution with a concentration of 100 μg/μl. Subsequently, a series of 10-fold dilutions were made from each of the stock solutions for each compound tested. For each dilution, a 10 μl portion was dispersed onto a filter paper strip (4×10 mm), which was then inserted into a Pasteur pipette to create the stimulus cartridge. A sample containing the solvent alone served as control. The airflow across the antennae was maintained constant at a 20 ml/second throughout the experiment. Purified and humidified air was delivered to the preparation through a glass tube (10-mm inner diameter) perforated by a small hole 10 cm away from the end of the tube, into which the tip of the Pasteur pipette could be inserted. The stimulus was delivered to the sensilla by inserting the tip of the stimulus cartridge into this hole and diverting a portion of the air stream (0.5 l/min) to flow through the stimulus cartridge for 500 ms using a stimulus controller (Syntech, Germany). The distance between the end of the glass tube and the antennae was ≤1 cm. The number of spikes/second was obtained by averaging the results for each sensillum/compound combination.
(§3) To identify which mosquito olfactory receptor neuron(s) responds to pyrethrum, single sensillum recordings (SSR) were performed of Ae. aegypti antennal olfactory sensilla in response to a panel of odorants (FIG. 2C-2L), most of which are plant-derived mosquito repellents, such as pyrethrum, (±)-citronellal, geranyl acetate and (−)-borneol. Three responsive sst sensilla were identified, sst1-3, and six responsive sbt sensilla, sbt1-6, based on their response profiles to the odorants in the panel (FIG. 2B, 2D-2L).

[2] = test system: sbt-1 sensilla (sbt-1A and sbt-1B neurons); test: Single sensillum recording (SSR) of antennal sbt-1 sensilla; assay type: cell-based, Aedes aegypti; conditions: for response of sbt-1A neurons in AaOr31−/− mosquitoes: AaOr31 knockout vs ROCK, 10^−2 dilution, FIG. 3A; for response of sbt-1A neuron / response of sbt-1B neuron: wild-type ROCK; for response of sbt-1A neuron: pyrethrum and EBF at 10^−2 dilution; for response of sbt-1B neurons in AaOr31−/− mosquitoes: AaOr31 knockout, specificity control; for response of sbt-1B neuron: pyrethrum at 10^−2
Experimental: as §1, §2, §3

[3] = test system: Ae. aegypti mosquitoes; test: Hand-in-cage spatial repellency assay; assay type: in vivo, Aedes aegypti; conditions: for repellency in AaOr31−/− mosquitoes compared to wild-type mosquitoes: ROCK wild-type; for effect of (E)-β-farnesene on repellency of the compound: EBF 4 ppm, P-I 1000 ppm, P-II 1000 ppm, (−)-borneol 100 ppm; for repellency in pyrethrum/pyrethroid resistant KDR:ROCK mosquitoes compared to ROCK: FIG. 4G
Description: The hand-in-cage assay employed was similar to the hand-in-glove assay described by Boyle et al. (bioRxiv, 060178 (2016)). The setup for the hand-in-cage assay includes a 30 cm×30 cm×30 cm mosquito cage (BioQuip, Rancho Dominguea, Calif.), with a mounted digital camera and a human hand in a modified glove with a screened window. The digital camera (e-con Systems Inc, San Jose, Calif., model: e-CAM51A) for video recording is mounted on the cage top and connected to a laptop computer. A nitrile rubber glove (Ansell Protective Products, Coshoton, Ohio, part number: 37-155) was cut on the back side of the glove to create a window (6 cm×5 cm) (FIG. 1A). A piece of magnetic frame (slightly larger than the dimension of the window) was glued onto the cut window which was used as a base for stacking more magnetic window frames (FIG. 1A; further explained below). One piece of test compound-treated polyester netting (Shason Textile Inc., part number: WS-B532-111, white; slightly larger than the dimension of the window) was placed on this fixed magnetic frame, which was ˜3.0 mm above the glove. The second piece of the netting was untreated and placed ˜6.0 mm above the treated net using a stack of four magnetic frames. The stacked magnetic frames were further secured with a binder clip. The stacking creates sufficient space between the treated net and the untreated net so that mosquitoes that land on the open window were not able to contact treated net, or to contact and pierce skin of a hand in the glove. The hand makes no contact with the treated net.
The assay was run in a room with humidity between around 50% and temperature between 27° C. to 30° C. Twenty-four hours before an assay, four to nine days-old females (about 40, mated, non-blood fed) were transferred into a mosquito cage. The cage was kept in an incubator where mosquitoes were provided only with water in a cotton ball placed on the top of the cage. Immediately before the assay, one researcher treated pieces of netting with 500 μl test compound dissolved in acetone in a glass Petri dish in an adjacent room. Acetone served a control. After letting acetone evaporate (˜7 min), the researcher assembled and put on a modified glove. In the meantime, a second researcher or a lab assistant transferred the prepared cage from the incubator to a bench in the assay room. Both personnel avoided use of any hand lotions and cosmetic products before an assay and wore white lab coats and gloves during the assay. The hand with the modified glove was introduced into the cage to initiate the assay. Mosquitoes landing on the test window was recorded by the digital camera for five minutes. The number of mosquitoes landing during the second to fifth minutes was counted and recorded. For each cage, solvent (acetone) control was tested first and then followed with a treatment. Data from any cage that gave a low landing number in a control trial were discarded. The time interval of assays between control and treatment was at least 1.5 hours, allowing the mosquitoes to fully recover and residual vapors from experiments to be ventilated out of the room. Percentage repellency was determined for each cage using the following equation:
Percentage repellency=[1−(cumulative number of mosquitoes landed on the window of treatment/cumulative number of mosquitoes landed on the window of solvent treatment)]×100).
The spatial repellency of pyrethrum was examined using a hand-in-cage assay (Ogoma et al. PLoS neglected tropical diseases 11, e0005455 (2017)). In this behavioral assay, mosquitoes were attracted to a human hand in a modified glove (FIG. 1A) with a screened window on the back of the glove. The mosquitoes landed on a piece of control mesh secured on the top of the window. Between the control mesh and the hand is another mesh treated with a test compound, with which mosquitoes cannot make direct contact (FIG. 1A).

[4] = test system: AgOr31; test: SSR of Drosophila ab3A empty neurons expressing AgOr31; assay type: cell-based, Anopheles gambiae; conditions: 10^−2 dilution
Description: The method of Carey et al. (Nature 464, 66-71 (2010)) was used for heterologous expression of AgORs in the ab3 empty neurons. The Gal4 line (w; Cyo/Δhalo; Or22a-Gal4) was kindly provided by John Carlson (Yale Univ.), and 50 UAS-AgOr lines were obtained from the Bloomington Drosophila stock center.
Having identified sbt-1 and sst-1 as primary olfactory receptor neurons that are responsive to pyrethrum, experiments were designed to identify the specific odorant receptors (Ors) that are involved in these responses. An indexed library of An. gambiae Ors (AgOrs) (Carey et al., Nature 464, 66-71 (2010)) was used. Each of the 50 AgOrs was expressed in the “ab3 empty neuron” system of Drosophila melanogaster, in which the endogenous odorant receptor gene, Or22a, in the ab3 sensillum was deleted (FIG. 2N-2O, FIG. 3A).
Single sensillum recordings (SSR) were then examined from the resulting chimera ab3 sensillum that expressed the individual AgOrs in the D. melanogaster antenna when these flies were exposed to the same panel of odorants used in the analysis of Ae. aegypti sensilla. […] The odorant response profile of the sbt-1A neuron matches remarkably well with that of AgOr31 (FIGS. 2C, 2O).

[5] = 10^−3 dilution, Orlando (wild-type), FIG. 4B

CC12CCC(CC1)C(C)(C)O2 [eucalyptol]
response of sst-1A neuron [1]: activated

C=CC(=C)CC/C=C(\C)CCC=C(C)C [(E)-β-farnesene]
response of sbt-1A neurons in AaOr31−/− mosquitoes [2]: completely abolished
response of sbt-1A neuron [2]: activated
repellency alone ([3]; 4 ppm and 10 ppm, ROCK or AaOr31−/− mosquitoes, FIG. 4H): did not elicit repellency
repellency in AaOr31−/− mosquitoes compared to wild-type mosquitoes ([3]; 10^−2 dilution, FIG. 3B): significantly reduced
spatial repellency ([3]; 10^−2 dilution, ROCK, FIG. 3B): elicited spatial repellency
repellency alone ([3]; 1000 ppm or lower concentrations, FIG. 4H): no repellency
repellency enhancement by (E)-β-farnesene in AaOr31−/− mosquitoes ([3]; EBF 4 ppm with P-II 1000 ppm, FIG. 4D): abolished
repellency alone ([3]; at 4 ppm or below): did not exhibit repellency
activation of AgOr31 [4]: activated

CC(=O)OC/C=C(\C)CCC=C(C)C [geranyl acetate]
response of sbt-1A neurons in AaOr31−/− mosquitoes [2]: completely abolished
response of sbt-1A neuron [2]: strong excitatory responses
repellency in AaOr31−/− mosquitoes compared to wild-type mosquitoes ([3]; 10^−2 dilution, FIG. 3B): significantly reduced

CCCCC/C=C\C/C=C\CCCCCCCC(=O)OCC [ethyl linoleate]
response of sbt-1A neuron [2]: None
activation of AgOr31 [4]: None

Cc1ccccc1 [toluene]
response of sbt-1B neurons in AaOr31−/− mosquitoes [2]: remained intact
response of sbt-1B neuron [2]: highly sensitive

C=C/C=C\CC1=C(C)[C@@H](OC(=O)[C@@H]2[C@@H](C=C(C)C)C2(C)C)CC1=O [pyrethrin I]
repellency alone ([3]; 1 ppm, ROCK, FIG. 4E): did not elicit repellency
repellency in orco−/− mosquitoes compared to Orlando ([3]; 10^−3 dilution, FIG. 4B): significantly reduced
spatial repellency [3, 5]: elicited spatial repellency
effect of (E)-β-farnesene on repellency of the compound ([3]; ROCK, FIG. 4D): synergized
repellency in pyrethrum/pyrethroid resistant KDR:ROCK mosquitoes compared to ROCK [3]: reduced
synergism with (E)-β-farnesene in repellency ([3]; pyrethrin I 1 ppm, EBF 10 ppm, ROCK, FIG. 4E): still evident
response of sst-1A neurons [1]: activated

CC(C)=CCCC(C)CC=O (racemic) [(±)-citronellal]
response of sbt-1A neurons in AaOr31−/− mosquitoes [2]: completely abolished
response of sbt-1A neuron [2]: strong excitatory responses
repellency in AaOr31−/− mosquitoes compared to wild-type mosquitoes ([3]; 10^−2 dilution, FIG. 3B): significantly reduced
response of sst-1A neuron [1]: activated

CCCCCCCCCCCCCCCC(=O)OCC [ethyl palmitate]
response of sbt-1A neuron [2]: None
activation of AgOr31 [4]: None

C=C/C=C\CC1=C(C)[C@@H](OC(=O)[C@@H]2[C@@H](/C=C(\C)C(=O)OC)C2(C)C)CC1=O [pyrethrin II]
repellency in orco−/− mosquitoes compared to Orlando ([3]; 10^−3 dilution, FIG. 4B): significantly reduced
spatial repellency [3, 5]: elicited spatial repellency
effect of (E)-β-farnesene on repellency of the compound ([3]; ROCK, FIG. 4D): synergized
repellency in pyrethrum/pyrethroid resistant KDR:ROCK mosquitoes compared to ROCK [3]: reduced
response of sst-1A neurons [1]: activated

c1ccc2[nH]ccc2c1 [indole]
response of sbt-1B neurons in AaOr31−/− mosquitoes [2]: remained intact
response of sbt-1B neuron [2]: highly sensitive

CC12CCC(CC1=O)C2(C)C (centres unmarked) [camphor]
response of sst-1A neuron [1]: activated
